Results as given in ChEMBL document CHEMBL5724914, “Linking interpersonal differences in gut microbiota composition and drug biotransformation activity” (2024).

How the values were obtained:
[1] = human gut metagenome, 24 h, 2 µM
[2] = The drug is tested on Z-030 corresponding to mouse gut metagenome with ENA study accession number: PRJEB37062 and ENA sample accession number: ERS12561829 for biotransformation under anaerobic condition. The drug concentrations were measured over 9 timepoints collected between 0 and 24 hours of incubation by liquid-chromatography-coupled mass spectrometry (LC–MS); details: 2 µM
[3] = human gut metagenome, 24 h, 2 µM; remark: listed apart in the source
[4] = human gut metagenome, 24 h, 2 µM; remark: listed apart in the source
[5] = human gut metagenome, 24 h, 2 µM; remark: listed apart in the source
[6] = human gut metagenome, 24 h, 2 µM; remark: listed apart in the source
[7] = human gut metagenome, 24 h, 2 µM; remark: listed apart in the source
[8] = human gut metagenome, 24 h, 2 µM; remark: listed apart in the source
[9] = human gut metagenome, 24 h, 2 µM; remark: listed apart in the source
[10] = human gut metagenome, 24 h, 2 µM; remark: listed apart in the source
[11] = human gut metagenome, 24 h, 2 µM; remark: listed apart in the source
[12] = The drug is tested on WLS-086 corresponding to human gut metagenome with ENA study accession number: PRJEB37062 and ENA sample accession number: ERS12561752 for biotransformation under anaerobic condition. The drug concentrations were measured over 9 timepoints collected between 0 and 24 hours of incubation by liquid-chromatography-coupled mass spectrometry (LC–MS); details: 2 µM
[13] = The drug is tested on WLS-370 corresponding to human gut metagenome with ENA study accession number: PRJEB37062 and ENA sample accession number: ERS12561793 for biotransformation under anaerobic condition. The drug concentrations were measured over 9 timepoints collected between 0 and 24 hours of incubation by liquid-chromatography-coupled mass spectrometry (LC–MS); details: 2 µM
[14] = The drug is tested on Z-011 corresponding to mouse gut metagenome with ENA study accession number: PRJEB37062 and ENA sample accession number: ERS12561811 for biotransformation under anaerobic condition. The drug concentrations were measured over 9 timepoints collected between 0 and 24 hours of incubation by liquid-chromatography-coupled mass spectrometry (LC–MS); details: 2 µM
[15] = The drug is tested on Z-029 corresponding to rat gut metagenome with ENA study accession number: PRJEB37062 and ENA sample accession number: ERS12561828 for biotransformation under anaerobic condition. The drug concentrations were measured over 9 timepoints collected between 0 and 24 hours of incubation by liquid-chromatography-coupled mass spectrometry (LC–MS); details: 2 µM
[16] = The drug is tested on Z-004 corresponding to metagenome with ENA study accession number: PRJEB37062 and ENA sample accession number: ERS12561804 for biotransformation under anaerobic condition. The drug concentrations were measured over 9 timepoints collected between 0 and 24 hours of incubation by liquid-chromatography-coupled mass spectrometry (LC–MS); details: 2 µM
[17] = The drug is tested on Z-009 corresponding to pig gut metagenome with ENA study accession number: PRJEB37062 and ENA sample accession number: ERS12561809 for biotransformation under anaerobic condition. The drug concentrations were measured over 9 timepoints collected between 0 and 24 hours of incubation by liquid-chromatography-coupled mass spectrometry (LC–MS); details: 2 µM
[18] = The drug is tested on WLS-090 corresponding to human gut metagenome with ENA study accession number: PRJEB37062 and ENA sample accession number: ERS12561753 for biotransformation under anaerobic condition. The drug concentrations were measured over 9 timepoints collected between 0 and 24 hours of incubation by liquid-chromatography-coupled mass spectrometry (LC–MS); details: 2 µM
[19] = human gut metagenome, 24 h, 2 µM; remark: listed apart in the source
[20] = The drug is tested on Z-023 corresponding to metagenome with ENA study accession number: PRJEB37062 and ENA sample accession number: ERS12561822 for biotransformation under anaerobic condition. The drug concentrations were measured over 9 timepoints collected between 0 and 24 hours of incubation by liquid-chromatography-coupled mass spectrometry (LC–MS); details: 2 µM
Also: call rule not given here.

SMILES	Bacterial Biotransformation [1]	Bacterial Biotransformation [2]	Bacterial Biotransformation [3]	Bacterial Biotransformation [4]	Bacterial Biotransformation [5]	Bacterial Biotransformation [6]	Bacterial Biotransformation [7]	Bacterial Biotransformation [8]	Bacterial Biotransformation [9]	Bacterial Biotransformation [10]	Bacterial Biotransformation [11]	Bacterial Biotransformation [12]	Bacterial Biotransformation [13]	Bacterial Biotransformation [14]	Bacterial Biotransformation [15]	Bacterial Biotransformation [16]	Bacterial Biotransformation [17]	Bacterial Biotransformation [18]	Bacterial Biotransformation [19]	Bacterial Biotransformation [20]
O=c1n(CCCN2CCN(c3cccc(Cl)c3)CC2)nc2ccccn12 [TRAZODONE]	Compound metabolized	Compound NOT metabolized	Compound NOT metabolized	Compound metabolized	Compound NOT metabolized	Compound metabolized	Compound metabolized	Compound metabolized	Compound NOT metabolized	Compound metabolized	Compound NOT metabolized	Compound metabolized	Compound metabolized	Compound NOT metabolized	Compound NOT metabolized	Compound metabolized	Compound NOT metabolized	Compound metabolized	Compound NOT metabolized	Compound NOT metabolized
OC(CCN1CCCCC1)(c1ccccc1)C1CCCCC1 (stereo not given) [TRIHEXYPHENIDYL]	Compound metabolized	Compound NOT metabolized	Compound NOT metabolized	Compound metabolized	Compound NOT metabolized	Compound metabolized	Compound metabolized	Compound metabolized	Compound metabolized	Compound metabolized	Compound NOT metabolized	Compound metabolized	Compound metabolized	Compound NOT metabolized	Compound NOT metabolized	Compound metabolized	Compound metabolized	Compound metabolized	Compound metabolized	Compound metabolized
Cc1cn([C@H]2C[C@H](N=[N+]=[N-])[C@@H](CO)O2)c(=O)[nH]c1=O [ZIDOVUDINE]	Compound NOT metabolized	Compound metabolized	Compound NOT metabolized	Compound NOT metabolized	Compound NOT metabolized	Compound NOT metabolized	Compound NOT metabolized	Compound NOT metabolized	Compound NOT metabolized	Compound NOT metabolized	Compound NOT metabolized	Compound NOT metabolized	Compound NOT metabolized	Compound metabolized	Compound metabolized	Compound metabolized	Compound NOT metabolized	Compound NOT metabolized	Compound NOT metabolized	Compound NOT metabolized
